For 24 molecules, mrna remaining results are on record in patent US20080255111A1, “Tissue Factor Production Inhibitor” (SANKYO COMPANY LIMITED, priority 2004, published 2008).

Each structure is given as a SMILES string.

The assay relates to tissue factor mRNA in LPS-stimulated mouse peritoneal macrophages. The assay can be described thus: Assay of mouse peritoneal macrophage tissue factor mRNA. It is filed as cell-based. To be noted: 18 h, then LPS 100 ng/ml for 6 h, relative to cyclophilin mRNA, DMSO treatment = 100, read-out: Expressed Amount of Tissue Factor mRNA; for mrna remaining at 1 µM: test compound 1 μM; for mrna remaining at 10 µM: test compound 10 μM. On the procedure:
3 ml of thioglycolate (Sigma Chemical) were administered into the abdominal cavity of male C57BL/6J mice (Charles River) followed 4 days later by intraperitoneal administration of 10 ml of phosphate-buffered saline (hereinafter PBS) containing heparin (Hishiyama Pharmaceutical) at a concentration of 5 U/ml and recovery of intraperitoneal macrophages using a syringe. After centrifuging the recovered macrophages at 1000 rpm and 4° C. for 5 minutes, the supernatant was discarded followed by suspending in RPMI 1640 medium (Gibco Laboratories) containing normal fetal bovine serum (hereinafter FBS) at a concentration of 10%. The macrophages were adjusted to a concentration of 4×10^6 cells/ml, disseminated in 1 ml aliquots in a 12-well plate, and cultured for 3 hours at 37° C. using a CO2 incubator. Subsequently, the cells were washed with PBS, and the medium was replaced with RPMI medium containing lipoprotein-deficient serum (hereinafter LPDS) (Sigma Chemical) at a concentration of 5%. Test compounds dissolved in dimethylsulfoxide (DMSO) at a concentration of 1 μM were added to make a final DMSO concentration of 0.1%, and after warming for 18 hours at 37° C., lipopolysaccharide (hereinafter LPS) (Sigma Chemical) was added to make a concentration of 100 ng/ml. The cells were recovered 6 hours later, RNA was extracted using the Rneasy Mini Kit (Qiagen), and after carrying out a reverse transcription reaction using the First-Strand cDNA Synthesis Kit (Amersham Biosciences), the expressed amounts of tissue factor mRNA and cyclophylin mRNA were measured by quantitative RT-PCR (TaqMan, Applied Biosystems 7700 Sequence Detector).
Quantitative RT-PCR for tissue factor was carried out using the aforementioned TF-1 and TF-2 as primers and TF-P as probes, while quantitative PCR for cyclophilin was carried out using the aforementioned Cyl-1 and Cyl-2 as primers and Cyl-P as probes. Both were carried out by warming for 2 minutes at 50° C. and then for 10 minutes at 95° C., followed by 40 warming cycles consisting of warming for 15 seconds at 95° C. and then for 1 minute at 60° C. The expressed amount of tissue factor mRNA was calculated as a relative value of the expressed amount of cyclophilin mRNA. The expressed amounts of tissue factor mRNA resulting from the test compounds at a concentration of 1 μM or 10 μM based on a value of 100 for the expressed amount of tissue factor mRNA in a case of treatment with DMSO at a concentration of […] are shown in Table 7.

`CN(C(=O)CC1CC1)c1ccc(OCc2ccc(C(F)(F)F)c(O)c2C(=O)OC(C)(C)C)cc1` [Reference Example 8, tert-Butyl 6-({4-[(cyclopropylacetyl) (methyl)amino]phenoxy}methyl)-2-hydroxy-3-(trifluoromethyl)benzoate]: the mrna remaining at 1 µM came to 51.8%.
On to `O=c1c2cc(OCCO)ccc2nc(Cc2ccccc2)n1-c1ccc(C(O)(C(F)(F)F)C(F)(F)F)cc1` [Compound E, 2-Benzyl-6-(2-hydroxyethoxy)-3-[4-[2,2,2-trifluoro-1-hydroxy-1-(trifluoromethyl)ethyl]phenyl]-4(3H)-quinazolinone], for which the mrna remaining at 1 µM amounted to 37.7%.
With `Cc1ccc(Cc2nc3ccc(-n4ccnc4)cc3c(=O)n2-c2ccc(C(O)(C(F)(F)F)C(F)(F)F)cc2C)cc1` [Compound G, 6-(1H-Imidazol-1-yl)-2-(4-methylbenzyl)-3-{2-methyl-4-[2,2,2-trifluoro-1-hydroxy-1-(trifluoromethyl)ethyl]phenyl}-4(3H)-quinazolinone], the mrna remaining at 10 µM came out at 44.7%.
`CN(C(=O)C1CC1)c1ccc(OCc2ccc(C(F)(F)F)c(O)c2C(=O)OC(C)(C)C)cc1` [Reference Example 5, tert-Butyl 6-({4-[(cyclopropylcarbonyl)(methyl)amino]phenoxy}methyl)-2-hydroxy-3-(trifluoromethyl)benzoate]: the mrna remaining at 1 µM is 64.3%.
On the same count and under the same terms, the value for `CC(C)(C)OC(=O)c1c(COc2ccc(-c3ccc(CC(=O)O)cc3[N+](=O)[O-])cc2)ccc(C(F)(F)F)c1O` [Reference Example 22, (4′-{[2-(tert-Butoxycarbonyl)-3-hydroxy-4-(trifluoromethyl)benzyl]oxy}-2-nitro-1,1′-biphenyl-4-yl)acetic acid] was 54%.
Take `CC(C)(C)OC(=O)c1c(COc2ccc(-c3ccc(C4(C(=O)O)CC4)cc3)cc2)ccc(C(F)(F)F)c1O` [Reference Example 28, 1-(4′-{[2-(tert-Butoxycarbonyl)-3-hydroxy-4-(trifluoromethyl)benzyl]oxy}-1,1′-biphenyl-4-yl)cyclopropanecarboxylic acid]: the mrna remaining at 10 µM stood at 41.7%.
In the case of `CC(C)(C)OC(=O)c1c(COc2ccc(-c3ccc(C(=O)O)cc3)cc2)ccc(C(F)(F)F)c1O` [Reference Example 34, 4′-{[2-(tert-Butoxycarbonyl)-3-hydroxy-4-(trifluoromethyl)benzyl]oxy}-1,1′-biphenyl-4-carboxylic acid], the mrna remaining at 10 µM was determined as 39%.
For `O=S(=O)(c1ccccc1)N(CC(F)(F)F)c1ccc(C(O)(C(F)(F)F)C(F)(F)F)cc1` [Compound A, N-(2,2,2-Trifluoroethyl)-N-{4-[2,2,2-trifluoro-1-hydroxy-1-(trifluoromethyl)ethyl]phenyl}benzenesulfonamide, reference compound], the mrna remaining at 1 µM was determined as 20%.
As to `CC(C)(C)OC(=O)c1c(COc2ccc(-c3ccc(C(CO)C(=O)O)cc3)cc2)ccc(C(F)(F)F)c1O` (stereo not drawn) [Reference Example 32, 2-(4′-{[2-(tert-Butoxycarbonyl)-3-hydroxy-4-(trifluoromethyl)benzyl]oxy}-1,1′-biphenyl-4-yl)-3-hydroxypropanoic acid], the mrna remaining at 10 µM stood at 48.5%.
For `CC(C)(C)OC(=O)c1c(COc2ccc(-c3cccc(S(C)(=O)=O)c3)cc2)ccc(C(F)(F)F)c1O` [Reference Example 29, tert-Butyl 2-hydroxy-6-({[3′-(methylsulfonyl)-1,1′-biphenyl-4-yl]oxy}methyl)-3-(trifluoromethyl)benzoate], the mrna remaining at 10 µM stood at 88.4%.
On to `CC(C)(C)OC(=O)c1c(COc2ccc(-c3ccc(CC(=O)O)cc3N)cc2)ccc(C(F)(F)F)c1O` [Reference Example 30, (2-Amino-4′-{[2-(tert-butoxycarbonyl)-3-hydroxy-4-(trifluoromethyl)benzyl]oxy}-1,1′-biphenyl-4-yl)acetic acid], for which the mrna remaining at 1 µM amounted to 65.6%.
As to `CC(C)c1ccc(COc2ccc(-c3ccc(CC(=O)O)cc3)cc2)c(C(=O)OC(C)(C)C)c1O` [Reference Example 18, (4′-{[2-(tert-Butoxycarbonyl)-3-hydroxy-4-isopropylbenzyl]oxy}-1,1′-biphenyl-4-yl)acetic acid], the mrna remaining at 1 µM was determined as 56.9%.
Consider `CC(C)(C)OC(=O)n1c(COc2ccc(-c3ccc(CC(=O)O)cc3Cl)cc2)cc2ccc(F)cc21` [Reference Example 12, (4′-{[1-(tert-Butoxycarbonyl)-6-fluoro-1H-indol-2-yl]methoxy}-2-chloro-1,1′-biphenyl-4-yl)acetic acid], for which the mrna remaining at 1 µM came to 54.3%.
Turning to `CCc1ccc(COc2ccc(N(C)C(C)=O)cc2)c(C(=O)OC(C)(C)C)c1O` [Reference Example 7, tert-Butyl 6-({4-[acetyl(methyl)amino]phenoxy}methyl)-3-ethyl-2-hydroxybenzoate], the mrna remaining at 1 µM is 68%.
Still for that read-out and setting: in the case of `COc1cc(CC(=O)O)ccc1-c1ccc(OCc2ccc(C(F)(F)F)c(O)c2C(=O)OC(C)(C)C)cc1` [Reference Example 25, (4′-{[2-(tert-Butoxycarbonyl)-3-hydroxy-4-(trifluoromethyl)benzyl]oxy}-2-methoxy-1,1′-biphenyl-4-yl)acetic acid] it was 64%; in that of `CC(C)(C)OC(=O)c1c(COc2ccc(-c3ccc(CC(=O)O)cc3Cl)cc2)ccc(C(F)(F)F)c1O` [Reference Example 26, (4′-{[2-(tert-Butoxycarbonyl)-3-hydroxy-4-(trifluoromethyl)benzyl]oxy}-2-chloro-1,1′-biphenyl-4-yl)acetic acid], 42.3%; in that of `CC(C)(C)OC(=O)c1c(COc2ccc(-c3ccc(CC(=O)O)c(F)c3)cc2)ccc(C(F)(F)F)c1O` [Reference Example 23, (4′-{[2-(tert-Butoxycarbonyl)-3-hydroxy-4-(trifluoromethyl)benzyl]oxy}-3-fluoro-1,1′-biphenyl-4-yl)acetic acid], 51.6%.
With `CC(C)(C)OC(=O)c1c(COc2ccc(-c3ccc(CC(=O)O)cc3C(F)(F)F)cc2)ccc(C(F)(F)F)c1O` [Reference Example 27, (4′-{[2-(tert-Butoxycarbonyl)-3-hydroxy-4-(trifluoromethyl)benzyl]oxy}-2-trifluoromethyl-1,1′-biphenyl-4-yl)acetic acid], the mrna remaining at 1 µM was 63.5%.
The same measure, in the same setting: the value for `Cc1cc(CC(=O)O)ccc1-c1ccc(OCc2ccc(C(F)(F)F)c(O)c2C(=O)OC(C)(C)C)cc1` [Reference Example 24, (4′-{[2-(tert-Butoxycarbonyl)-3-hydroxy-4-(trifluoromethyl)benzyl]oxy}-2-methyl-1,1′-biphenyl-4-yl)acetic acid] was 61.8%.
As to `CC(=O)N(C)c1ccc(OCc2cc3ccc(F)cc3n2C(=O)OC(C)(C)C)cc1` [Reference Example 3, tert-Butyl 2-({4-[acetyl(methyl)amino]phenoxy}methyl)-6-fluoro-1H-indole-1-carboxylate], the mrna remaining at 1 µM amounted to 67.9%.
On to `CC(C)(C)OC(=O)c1c(COc2ccc(-c3ccc(CC(=O)O)cc3)cc2)ccc(F)c1O` [Reference Example 19, (4′-{[2-(tert-Butoxycarbonyl)-4-fluoro-3-hydroxybenzyl]oxy}-1,1′-biphenyl-4-yl)acetic acid], for which the mrna remaining at 10 µM came out at 51.6%.
In the case of `CN(C(=S)C1CC1)c1ccc(OCc2cc3c(F)cc(F)cc3n2C(=O)OC(C)(C)C)cc1` [Reference Example 4, tert-Butyl 2-({4-[(cyclopropylcarbonothioyl)(methyl)amino]phenoxy}methyl)-4,6-difluoro-1H-indole-1-carboxylate], the mrna remaining at 1 µM was found to be 57.6%.
Regarding `CN(c1ccc(OCc2ccc(C(F)(F)F)c(O)c2C(=O)OC(C)(C)C)cc1)S(C)(=O)=O` [Reference Example 6, tert-Butyl 2-hydroxy-6-({4-[methyl(methylsulfonyl)amino]phenoxy}methyl)-3-(trifluoromethyl)benzoate], the mrna remaining at 1 µM was found to be 62.8%.
With `CC(C)(C)OC(=O)c1c(COc2ccc(-c3ccc(CC(=O)O)c(Cl)c3)cc2)ccc(C(F)(F)F)c1O` [Reference Example 14, (4′-{[2-(tert-Butoxycarbonyl)-3-hydroxy-4-(trifluoromethyl)benzyl]oxy}-3-chloro-1,1′-biphenyl-4-yl)acetic acid], the mrna remaining at 1 µM stood at 61.2%.
